Measurements taken from article PMC7416410, “Synthesis, molecular docking and molecular dynamic simulation studies of 2-chloro-5-[(4-chlorophenyl)sulfamoyl]-N-(alkyl/aryl)-4-nitrobenzamide derivatives as antidiabetic agents” (BMC Chemistry, 2020).

Assays:
[1] = target: α-amylase from malt; assay: α-Amylase inhibitory assay; format: biochemical; conditions: for IC50: in vitro
From the text: The analytical grade chemicals and reagents were used as such in experiments without any purification. Decibel melting point apparatus was used for checking the melting point of the synthesized compounds and are reported as uncorrected. The silica gel-precoated aluminum sheets for thin-layer chromatography (TLC) were employed to keep a vigil of the reaction progress. FT-IR (Diffuse Reflectance Method (DRS) -8000A, Shimadzu, Japan) spectrophotometer was utilized for recording infrared spectra and the Bruker Avance III, 400 MHz NMR spectrometer was employed for nuclear magnetic resonance spectra (^1H NMR, ^13C NMR; Chemical shift δ values- ppm). α-Glucosidase from Saccharomyces cerevisiae (EC 3.2.1.20, Sigma Aldrich) and α-amylase from malt (232-588-1, HiMedia) have been used for in vitro studies.
Xiao et al., and Yoshikawa et al., illustrated a method, with little modification this method has been adopted for measuring the activity.

[2] = target: T1, α-Glucosidase from Saccharomyces cerevisiae (Saccharomyces cerevisiae, UniProt P53341); assay: α-Glucosidase inhibitory assay; format: biochemical; conditions: for IC50: in vitro
T1 construct: purchased Sigma Aldrich
T1 sequence (P53341 whole entry): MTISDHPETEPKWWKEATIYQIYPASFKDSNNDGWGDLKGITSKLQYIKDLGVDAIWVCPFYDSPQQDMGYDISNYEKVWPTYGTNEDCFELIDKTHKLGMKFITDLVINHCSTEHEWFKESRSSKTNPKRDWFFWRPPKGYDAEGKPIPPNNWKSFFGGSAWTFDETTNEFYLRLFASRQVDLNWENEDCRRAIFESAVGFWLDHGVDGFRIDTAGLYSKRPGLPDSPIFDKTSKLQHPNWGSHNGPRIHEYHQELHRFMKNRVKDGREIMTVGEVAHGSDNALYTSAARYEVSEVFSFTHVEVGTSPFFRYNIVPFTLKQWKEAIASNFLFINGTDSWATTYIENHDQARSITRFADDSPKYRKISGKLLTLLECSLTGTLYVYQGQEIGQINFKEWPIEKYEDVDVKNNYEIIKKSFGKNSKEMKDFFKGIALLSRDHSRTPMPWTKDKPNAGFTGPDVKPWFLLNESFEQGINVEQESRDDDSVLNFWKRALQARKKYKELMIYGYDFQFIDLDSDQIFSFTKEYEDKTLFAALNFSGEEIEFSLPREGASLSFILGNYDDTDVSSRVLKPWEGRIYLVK
From the text: The analytical grade chemicals and reagents were used as such in experiments without any purification. Decibel melting point apparatus was used for checking the melting point of the synthesized compounds and are reported as uncorrected. The silica gel-precoated aluminum sheets for thin-layer chromatography (TLC) were employed to keep a vigil of the reaction progress.
The method adopted for performing α-glucosidase inhibitory assay was similar to our prevenient study, Thakral and Singh.

With `C[C@H]1O[C@H](O[C@H]2[C@H](O)[C@@H](O)[C@@H](O[C@H]3[C@H](O)[C@@H](O)C(O)O[C@@H]3CO)O[C@@H]2CO)[C@H](O)[C@@H](O)[C@@H]1N[C@H]1C=C(CO)[C@@H](O)[C@H](O)[C@H]1O` (stereo partly drawn) [Acarbose, reference compound] the IC50 [1] was 5.6 ± 0.3 µM.
For `Cc1ccc(NC(=O)c2cc(S(=O)(=O)Nc3ccc(Cl)cc3)c([N+](=O)[O-])cc2Cl)cc1` [Compound 5a, 2-Chloro-5-[(4-chlorophenyl)sulfamoyl]-N-(4-methylphenyl)-4-nitrobenzamide], the IC50 [2] was 31.4 ± 1.66 µM, the melting point was 90 to 92 °C and the IC50 [1] was 7.4 ± 0.15 µM.
`Cc1cccc(NC(=O)c2cc(S(=O)(=O)Nc3ccc(Cl)cc3)c([N+](=O)[O-])cc2Cl)c1` [Compound 5b, 2-Chloro-5-[(4-chlorophenyl)sulfamoyl]-N-(3-methylphenyl)-4-nitrobenzamide] showed an IC50 [2] of 24.8 ± 2.69 µM, a melting point of 102 to 104 °C and an IC50 [1] of 5.3 ± 1.23 µM.
In the case of `Cc1ccccc1NC(=O)c1cc(S(=O)(=O)Nc2ccc(Cl)cc2)c([N+](=O)[O-])cc1Cl` [Compound 5c, 2-Chloro-5-[(4-chlorophenyl)sulfamoyl]-N-(2-methylphenyl)-4-nitrobenzamide], the IC50 [2] is reported as 26.8 ± 1.13 µM, the melting point is reported as 88 to 90 °C and the IC50 [1] is reported as 8 ± 0.71 µM.
Work on `COc1ccc(NC(=O)c2cc(S(=O)(=O)Nc3ccc(Cl)cc3)c([N+](=O)[O-])cc2Cl)cc1` [Compound 5d, 2-Chloro-5-[(4-chlorophenyl)sulfamoyl]-N-(4-methoxyphenyl)-4-nitrobenzamide] yielded an IC50 [2] of 38.57 ± 0.01 µM, a melting point of 150 to 152 °C and an IC50 [1] of 38 ± 0.51 µM.
For `COc1ccccc1NC(=O)c1cc(S(=O)(=O)Nc2ccc(Cl)cc2)c([N+](=O)[O-])cc1Cl` [Compound 5e, 2-Chloro-5-[(4-chlorophenyl)sulfamoyl]-N-(2-methoxyphenyl)-4-nitrobenzamide], the IC50 [2] was 41.7 ± 1.08 µM, the melting point was 164 to 166 °C and the IC50 [1] was 50.3 ± 0.21 µM.
`O=C(Nc1ccc(Br)cc1)c1cc(S(=O)(=O)Nc2ccc(Cl)cc2)c([N+](=O)[O-])cc1Cl` [Compound 5f, N-(4-Bromophenyl)-2-chloro-5-[(4-chlorophenyl)sulfamoyl]-4-nitrobenzamide] gave an IC50 [2] of 50.2 ± 0.89 µM, a melting point of 200 to 202 °C and an IC50 [1] of 16 ± 0.33 µM.
Work on `O=C(Nc1cccc(Br)c1)c1cc(S(=O)(=O)Nc2ccc(Cl)cc2)c([N+](=O)[O-])cc1Cl` [Compound 5g, N-(3-Bromophenyl)-2-chloro-5-[(4-chlorophenyl)sulfamoyl]-4-nitrobenzamide] yielded an IC50 [2] of 35.9 ± 0.6 µM, a melting point of 181 to 183 °C and an IC50 [1] of 16.7 ± 0.41 µM.
Compound `O=C(Nc1ccccc1Br)c1cc(S(=O)(=O)Nc2ccc(Cl)cc2)c([N+](=O)[O-])cc1Cl` [Compound 5h, N-(2-Bromophenyl)-2-chloro-5-[(4-chlorophenyl)sulfamoyl]-4-nitrobenzamide] has an IC50 [2] of 40.6 ± 1.49 µM, a melting point of 180 to 182 °C and an IC50 [1] of 19.3 ± 0.63 µM.
`O=C(Nc1cccc(Cl)c1)c1cc(S(=O)(=O)Nc2ccc(Cl)cc2)c([N+](=O)[O-])cc1Cl` [Compound 5i, 2-Chloro-N-(3-chlorophenyl)-5-[(4-chlorophenyl)sulfamoyl]-4-nitrobenzamide] showed an IC50 [2] of 14 ± 0.93 µM, a melting point of 220 to 222 °C and an IC50 [1] of 27.1 ± 0.51 µM.
For `O=C(Nc1ccccc1Cl)c1cc(S(=O)(=O)Nc2ccc(Cl)cc2)c([N+](=O)[O-])cc1Cl` [Compound 5j, 2-Chloro-N-(2-chlorophenyl)-5-[(4-chlorophenyl)sulfamoyl]-4-nitrobenzamide], the IC50 [2] was 15.8 ± 0.9 µM, the melting point was 176 to 178 °C and the IC50 [1] was 20.9 ± 1.24 µM.
Work on `O=C(Nc1ccccc1[N+](=O)[O-])c1cc(S(=O)(=O)Nc2ccc(Cl)cc2)c([N+](=O)[O-])cc1Cl` [Compound 5k, 2-Chloro-5-[(4-chlorophenyl)sulfamoyl]-4-nitro-N-(2-nitrophenyl)benzamide] yielded an IC50 [2] of 36.9 ± 1.3 µM, a melting point of 150 to 152 °C and an IC50 [1] of 12.5 ± 0.91 µM.
Work on `Cc1c(Cl)cccc1NC(=O)c1cc(S(=O)(=O)Nc2ccc(Cl)cc2)c([N+](=O)[O-])cc1Cl` [Compound 5l, 2-Chloro-N-(3-chloro-2-methylphenyl)-5-[(4-chlorophenyl)sulfamoyl]-4-nitrobenzamide] yielded an IC50 [2] of 29 ± 0.86 µM, a melting point of 212 to 214 °C and an IC50 [1] of 6.3 ± 0.42 µM.
`Cc1c(NC(=O)c2cc(S(=O)(=O)Nc3ccc(Cl)cc3)c([N+](=O)[O-])cc2Cl)cccc1[N+](=O)[O-]` [Compound 5m, 2-Chloro-5-[(4-chlorophenyl)sulfamoyl]-N-(2-methyl-3-nitrophenyl)-4-nitrobenzamide] gave an IC50 [2] of 24.5 ± 1.23 µM, a melting point of 170 to 172 °C and an IC50 [1] of 1.52 ± 0.84 µM.
Work on `O=C(Nc1ccc([N+](=O)[O-])cc1Cl)c1cc(S(=O)(=O)Nc2ccc(Cl)cc2)c([N+](=O)[O-])cc1Cl` [Compound 5n, 2-Chloro-N-(2-chloro-4-nitrophenyl)-5-[(4-chlorophenyl)sulfamoyl]-4-nitrobenzamide] yielded an IC50 [2] of 29.5 ± 1.53 µM, a melting point of 214 to 216 °C and an IC50 [1] of 35.3 ± 0.45 µM.
In the case of `Cc1ccc([N+](=O)[O-])cc1NC(=O)c1cc(S(=O)(=O)Nc2ccc(Cl)cc2)c([N+](=O)[O-])cc1Cl` [Compound 5o, 2-Chloro-5-[(4-chlorophenyl)sulfamoyl]-N-(2-methyl-5-nitrophenyl)-4-nitrobenzamide], the “inhibitory potential against α-glucosidase in comparison to standard drug acarbose” value ([2]; fold relative to acarbose) is reported as “fourfold”, the IC50 [2] is reported as 10.8 ± 0.52 µM and the melting point is reported as 203 to 205 °C. For the same compound, the “inhibitory activity against α-amylase in comparison to standard drug acarbose” value ([1]; fold relative to acarbose) was “around six times” and the IC50 [1] was 0.9 ± 0.31 µM.
Work on `Cc1cc([N+](=O)[O-])ccc1NC(=O)c1cc(S(=O)(=O)Nc2ccc(Cl)cc2)c([N+](=O)[O-])cc1Cl` [Compound 5p, 2-Chloro-5-[(4-chlorophenyl)sulfamoyl]-N-(2-methyl-4-nitrophenyl)-4-nitrobenzamide] yielded an IC50 [2] of 19.5 ± 0.43 µM, a melting point of 104 to 106 °C and an IC50 [1] of 2.1 ± 0.52 µM.
Compound `O=C(Nc1ccc([N+](=O)[O-])cc1)c1cc(S(=O)(=O)Nc2ccc(Cl)cc2)c([N+](=O)[O-])cc1Cl` [Compound 5q] has an IC50 [2] of 43.9 ± 1.18 µM, a melting point of 177 to 179 °C and an IC50 [1] of 11.2 ± 0.67 µM.
`O=C(Nc1cccc([N+](=O)[O-])c1)c1cc(S(=O)(=O)Nc2ccc(Cl)cc2)c([N+](=O)[O-])cc1Cl` [Compound 5r, 2-Chloro-5-[(4-chlorophenyl)sulfamoyl]-4-nitro-N-(3-nitrophenyl)benzamide] showed an IC50 [2] of 34.4 ± 0.62 µM, a melting point of 135 to 137 °C and an IC50 [1] of 15.3 ± 1.24 µM.
In the case of `CCCNC(=O)c1cc(S(=O)(=O)Nc2ccc(Cl)cc2)c([N+](=O)[O-])cc1Cl` [Compound 5s, 2-Chloro-5-[(4-chlorophenyl)sulfamoyl]-4-nitro-N-propylbenzamide], the IC50 [2] is reported as 106.2 ± 0.61 µM, the melting point is reported as 116 to 118 °C and the IC50 [1] is reported as 48.05 ± 0.23 µM.
In the case of `CCCCNC(=O)c1cc(S(=O)(=O)Nc2ccc(Cl)cc2)c([N+](=O)[O-])cc1Cl` [Compound 5t, N-Butyl-2-chloro-5-[(4-chlorophenyl)sulfamoyl]-4-nitrobenzamide], the IC50 [2] is reported as 131 ± 2.42 µM, the melting point is reported as 111 to 113 °C and the IC50 [1] is reported as 55.1 ± 0.71 µM.
`O=C(NCc1ccco1)c1cc(S(=O)(=O)Nc2ccc(Cl)cc2)c([N+](=O)[O-])cc1Cl` [Compound 5u, 2-Chloro-5-[(4-chlorophenyl)sulfamoyl]-N-[(furan-2-yl)methyl]-4-nitrobenzamide] showed an IC50 [2] of 89 ± 1.76 µM, a melting point of 191 to 193 °C and an IC50 [1] of 38.2 ± 0.34 µM.
Work on `O=C(Nc1ccncc1)c1cc(S(=O)(=O)Nc2ccc(Cl)cc2)c([N+](=O)[O-])cc1Cl` [Compound 5v, 2-Chloro-5-[(4-chlorophenyl)sulfamoyl]-4-nitro-N-(pyridin-4-yl)benzamide] yielded an IC50 [2] of 52.4 ± 1.92 µM, a melting point of 197 to 199 °C and an IC50 [1] of 40.4 ± 0.87 µM.
